Test results taken from patent publication US7067533B2, “Aminophenoxyacetamide derivatives and pharmaceutical composition containing thereof” (Daiichi Asubio Pharma Co., Ltd., priority 2000, dated 2006).

Legend:
[1] = test system: cerebral edema (water content of cerebral hemisphere), Wistar rats; assay: Biological Test 5: cerebral edema suppressing effect; format: in vivo; settings: iv, 144 h, rat, post-TBI day 6, read-out: Cerebral edema suppressing rate (%); for inhibition in vivo at 3 mg/kg: 3 mg/kg intravenously just after the operation; for inhibition in vivo at 1 mg/kg: 1 mg/kg intravenously just after the operation
Method: Adult male Wistar rats weighing 210–230 g were used in the present study and housed in an artificially controlled environment with 12-hour light/dark cycle. Animals were anesthetized with pentobarbital sodium (50 mg/kg of body weight, i.p., Nembutal, Dinabbott, Japan) and placed in a stereotaxic apparatus. The skull was exposed and a hole was made on the parietal bone; 1.5 mm posterior and 0.8 mm lateral to the bregma. All procedures were performed under a surgery microscope to avoid excess irritation to the meninges and the underlying brain. A brass screw with a blunt tip (1.0 mm in diameter and 3.0 mm in length, Biomedica, Japan) was inset in the hole. The screw tip protruding intracranially was approximately 2.5 mm, which stuck into the parietal part of the right cerebrum through the meninges. In sham-operated rats, scalp was closed without attaching a screw to the hole. After surgery, all rats were kept in their original dens until sacrifice. Rats were allowed to feed chow and water ad libitum.
Under anesthesia the rat cerebral hemispheres of the target were processed for water content on post-TBI day 6 (n=6). The cerebral hemispheres dissected out were weighed, dried for 24 hours at 110 degree (Celsius) and then weighed again. The subtracted amount of the wet and dry weights was regarded as tissue water of the target, and utilized for the analysis of the cerebral edema.
The water content was calculated by using the following formula:
Water content (%) =[(wet weight of hemisphere—dry weight of hemisphere)/wet weight of hemisphere]×100
The test compounds were intravenously administered just after the operation via tail vein of the rats.

[2] = test system: primary cultures (neurons) from cerebral cortices of fetal Wistar rats; assay: Biological Test 2: antagonism of the neuroprotective effect by MTA treatment (MTT); format: cell-based, rat; settings: 0.75 mM MTA added 30 minutes before test compound, glutamate
Method: This biological test is performed to determine whether the neuroprotective effect of the test compounds is due to the activation of receptors of physiological active substances or not, by using antagonistic test for neutralizing antibody and Inhibitor for FGF, NT-3, NT-4/5, BDNF, IGF-I/II, NGF, PDGF and estrogen, respectively.
Chem., 268, 4244 (1993)]. Therefore, the neuroprotective effect of the test compounds is inhibited by treatment of MTA, this effect is depended by the signal transfer effect through the phosphorylation of FGF receptor.
The inhibitors of the various kinds of receptor were dissolved in the optimum concentration, and MTA was dissolved in the concentration of 7.5 mM, just before the using. 30 minutes before the treatment of the test compounds, the optimum concentration of each inhibitors or 0.75 mM of MTA was added, and the neuroprotective effect of the test compounds was determined by mean of MTT method.

[3] = test system: primary cultures (neurons) from cerebral cortices of fetal Wistar rats; assay: Biological Test 1: neuroprotective effect against glutamate induced neuronal cell death (MTT); format: cell-based, rat; settings: Compound: 1 μM; glutamate 1 mM; control group = 100%
Method: Cultures were maintained at 37 C. in a 90% air/10% CO2 humidified incubator. Glutamate was added to the culture at day 4 to the final concentration of 1 mM. […] MTT was dissolved in phosphate buffered saline (PBS, pH 7.4) at 5 mg/ml and filtered to sterilize and remove a small amount of insoluble residue present in some batches of MTT, and added to the cultures at a final concentration of 0.5 mg/ml.
The test compounds (1 μM) was added 24 hrs prior to glutamate treatment and simultaneously with glutamate.
Survival rate of living cells (%) =[(test compound group—glutamic acid treated group)÷(control group—glutamic acid treated group)]×100

[4] = test system: CalbindinD-28k; assay: Biological Test 3: CalbindinD-28k inducing effect (western blot); format: cell-based, rat; settings: control (none-treated) = 100
Method: Test compounds were added 5 days after initiation of the incubation, and after 7 days of incubation, the protein was extracted with homogenized buffer solution [containing 20 mm of Tris-HCl (pH=7.4), 1 mM of EDTA, and 0.1 mM of phenylmethyl-sulfonyl fluoride].
In the table, the amount of induced CalbindinD-28k of the control group (none-treated group) was 4indicated as 100 percents.

[5] = test system: primary cultures (neurons) from cerebral cortices of fetal Wistar rats; assay: Biological Test 4: neuroprotective inhibiting effect by calbindin antisense oligonucleotide (MTT); format: cell-based, rat; settings: 300 μM glutamic acid

Structure (SMILES) | inhibition in vivo at 3 mg/kg [1] | Survival Rate (%) (Compound: 1 μl & MTA treatment) [2] | Survival Rate (%) (Compound: 1 μl) [3] | Amount of induced CalbindineD-28k (% vs. control) (Compound: 1 μM) [4] | Survival Rate (%) [antisense (+): 5 μM] ([5]; 0.1 μM) | Survival Rate (%) [antisense (−)] ([5]; 0.1 μM) | Survival Rate (%) [antisense (+): 5 μM] ([5]; 1 μM) | Survival Rate (%) [antisense (−)] ([5]; 1 μM) | inhibition in vivo at 1 mg/kg [1]
Cc1c(C)c(OCC(=O)N(C)C2CCN(CCc3ccccc3)CC2)c(C)c(C)c1N [Compound 6, 2-(4-Amino-2,3,5,6-tetramethylphenoxy)-N-methyl-N-(1-phenethyl-4-piperidinyl)acetamide] | 24.9% | 25% | 54% | 163 % vs. control | 30% | 103% | 34% | 108% | –
Cc1c(C)c(OCC(=O)N(C)C2CCN(C(=O)c3ccccc3)CC2)c(C)c(C)c1N [Compound 8, 2-(4-Amino-2,3,5,6-tetramethylphenoxy)-N-(1-benzoyl-4-piperidinyl)-N-methylacetamide] | – | 24% | 78% | – | – | – | – | – | 14%
Cc1c(C)c(OCC(=O)N(C)C2CCN(CC3CC3)CC2)c(C)c(C)c1N [Compound 12, 2-(4-Amino-2,3,5,6-tetramethylphenoxy)-N-(1-cyclo-propylmethyl-4-piperidinyl)-N-methylacetamide] | 14.7% | 33% | 54% | – | – | – | – | – | –
Cc1c(C)c(OCC(=O)N(C)C2CCN(Cc3ccc(C#N)cc3)CC2)c(C)c(C)c1N [Compound 18, 2-(4-Amino-2,3,5,6-tetramethylphenoxy)-N-[1-(4-cyano-benzyl)-4-piperidinyl]-N-methylacetamide] | – | 57% | 91% | – | – | – | – | – | 22.1%
CCCCN1CCC(N(C)C(=O)C(C)Oc2c(C)c(C)c(N)c(C)c2C)CC1 (centres unmarked) [Compound 24, 2-(4-Amino-2,3,5,6-tetramethylphenoxy)-N-(1-butyl-4-piperidinyl)-N-methylpropanamide] | – | 22% | 61% | – | – | – | – | – | 10.6%
Cc1c(C)c(OC(C)C(=O)N(C)C2CCN(CCN3CCOCC3)CC2)c(C)c(C)c1N (centres unmarked) [Compound 25, 2-(4-Amino-2,3,5,6-tetramethylphenoxy)-N-methy-N-{1-[2-(4-morpholinyl)ethyl]-4-piperidinyl}proanamide] | – | 16% | 87% | – | – | – | – | – | 19.1%
